Test results as given in PMC6411960, “Discovery of Novel Androgen Receptor Ligands by Structure-based Virtual Screening and Bioassays” (Genomics, Proteomics & Bioinformatics, 2019).
Like-named read-outs stand apart in the source and are kept apart here.

Columns and labels:
LNCaP cells = test: MTT cell proliferation assay, LNCaP; type: cell-based; details: for inhibition at 10 µM: Homo sapiens, LNCaP cell line, compound at 10 μM; for effect on growth of LNCaP cells: various concentrations; for change in cell viability / decrease in cell viability: 30 µM, versus cells not treated; for change in cell viability: P = 0.0001
Experimental: 3-(4,5-Dimethythiazol-2-yl)-2,5-diphenyl-2-H-tetrazolium bromid (MTT) colorimetric assay was utilized to evaluate cell proliferation, which can reflect the bioactivity and cytotoxicity of test compounds at cellular level. […] After incubation at 37 °C for 24 h, cells were treated with serial dilutions of indicated compounds (and 1 nM DHT for LNCaP culture) and incubated for another 3 days. Afterward, 10 μl of 5 mg/ml MTT solution was added into each well and further incubated for another 4 h. Then, 100 μl of triplex 10% SDS-0.1% HCl-PBS solutions were added to dissolve the formazan deposited on the bottom of the plates and the plates were then further retained in incubator overnight. The absorbance at 570 nm was measured with the reference wavelength at 650 nm with a spectrophotometer (Bioteck Eon, Winooski, VT).

[1] = system: AR transcriptional activity; test: LNCaP-ARR2PB-eGFP transcriptional activity assay, antagonist mode (with DHT); type: cell-based; details: for EC50: read-out: Antagonistic EC50; for effect on eGFP expression: 10 µM compound in the presence of 1 nM DHT, versus DHT control
[2] = system: AR transcriptional activity; test: LNCaP-ARR2PB-eGFP transcriptional activity assay, agonist mode (without DHT); type: cell-based
Experimental: 1 nM DHT was added for background fluorescence. In addition, cells receiving equal volume of DMSO solution with (dark gray bar) or without (light gray bar) DHT served as controls too. […] C. […] The test concentrations range from 0.001 nM to 10 µM. DHT served as the positive control. Assays were performed in triplicate. Multiple group comparisons were analyzed with 1-way ANOVA (**, P < 0.05 were considered statistically significant).
The agonistic effects of the screened compounds were analyzed by stimulating the cell growth of LNCaP-ARR2PB-eGFP without prior addition of DHT. Cells were incubated with various concentrations of HBP1-3, HBP1-17, HBP1-38, and HBP1-51, respectively, ranging from 1 × 10^−3 nM to 1 × 10^4 nM (Figure 4C).
A cell line of LNCaP that stably expresses eGFP under the regulation of an androgen response element was generated to investigate the agonist/antagonist activity of the selected compounds as previously described, [34]. […] For lentiviral infection, LNCaP cells were plated and proliferated to a confluence of 60% before adding 5 ml of the collected lentivirus. Medium was refreshed 16 h later and cells were incubated for another two days. GFP expression in the transfected cell was examined with a fluorescent microscope. Subsequently, the infected cells were cultured in complete medium containing 1 μg/ml puromycin. This procedure was repeated for three cycles in the next subculture process to adequately eliminate the non-transfected clones. Cells surviving the screening process were AR-regulated eGFP-expressing LNCaP cells (LNCaP-ARR2PB-eGFP) and were cultured for subsequent antagonist/agonist assay.

AR-LBD = target: T1, AR-LBD (Homo sapiens, UniProt P10275); test: PolarScreen AR competitor assay (fluorescence polarization); type: binding; details: competition with Flu-AR ligand; for EC50: gradient concentrations 0.1–100 µM, read-out: Binding EC50; for IC50: 0.1–100 µM, read-out: IC50, binding to AR-LBD
T1 sequence (P10275 669-900 limits assumed): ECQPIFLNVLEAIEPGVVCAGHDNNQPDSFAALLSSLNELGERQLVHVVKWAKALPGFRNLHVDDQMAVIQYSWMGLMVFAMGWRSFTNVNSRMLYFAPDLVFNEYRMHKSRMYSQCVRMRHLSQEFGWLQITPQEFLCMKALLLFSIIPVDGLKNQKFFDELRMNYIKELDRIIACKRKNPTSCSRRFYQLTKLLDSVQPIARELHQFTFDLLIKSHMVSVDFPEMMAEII

C4-2 cells = test: MTT cell proliferation assay, C4-2; type: cell-based; details: for reduction of cell viability: C4-2, 30 µM, versus cells without treatment
Source text: We further tested C4-2, an androgen-independent AR^+ PCa cell line, which is more malignant than LNCaP. […] Given inhibitory effect was only observed at higher concentrations, it remains to be addressed whether the inhibition is attributed to AR blocking or the inherent toxicities of the tested compounds. We thus tested these compounds on DU145, an AR^− PCa cell line.
3-(4,5-Dimethythiazol-2-yl)-2,5-diphenyl-2-H-tetrazolium bromid (MTT) colorimetric assay was utilized to evaluate cell proliferation, which can reflect the bioactivity and cytotoxicity of test compounds at cellular level. PCa cells were cultured in 1640 RPMI media containing 5% charcoal-stripped serum (CSS) at a density of 5000 cells per well for LNCaP, 1000 cells per well for C4-2, and 2000 cells per well for DU145 in 96-well plates. After incubation at 37 °C for 24 h, cells were treated with serial dilutions of indicated compounds (and 1 nM DHT for LNCaP culture) and incubated for another 3 days. Afterward, 10 μl of 5 mg/ml MTT solution was added into each well and further incubated for another 4 h. Then, 100 μl of triplex 10% SDS-0.1% HCl-PBS solutions were added to dissolve the formazan deposited on the bottom of the plates and the plates were then further retained in incubator overnight. The absorbance at 570 nm was measured with the reference wavelength at 650 nm with a spectrophotometer (Bioteck Eon, Winooski, VT).

[3] = without DHT, 1 × 10^−3 nM to 1 × 10^4 nM
[4] = LNCaP-ARR2PB-eGFP, in the presence of DHT

Row | SMILES | inhibition at 10 µM (LNCaP cells) | effect on growth of LNCaP cells (LNCaP cells; LNCaP) | EC50 (AR-LBD) | reduction of cell viability (C4-2 cells) | effect on eGFP expression [1] | agonistic effect on eGFP expression [2, 3] | also measured
1 | CC(O)(CS(=O)(=O)c1ccc(F)cc1)C(=O)Nc1ccc(C#N)c(C(F)(F)F)c1 (centres unmarked) [Bic, bicalutamide, reference compound] | 16.5 ± 1% | reduced the growth of LNCaP cells in a dose-dependent manner | – | – | – | – | EC50 [1]: 0.69 ± 0.085 µM
2 | C[C@]12CCC(=O)C[C@@H]1CC[C@@H]1[C@@H]2CC[C@]2(C)[C@@H](O)CC[C@@H]12 [DHT, dihydrotestosterone, reference compound] | – | – | – | – | – | – | agonistic effect on eGFP expression [2]: upregulated eGFP expression in a dose-dependent manner
3 | CNC(=O)c1ccc(N2C(=S)N(c3ccc(C#N)c(C(F)(F)F)c3)C(=O)C2(C)C)cc1F [Enz, enzalutamide, reference compound] | – | reduced the growth of LNCaP cells in a dose-dependent manner | – | – | – | – | –
4 | Nc1ccc2c(c1)C(=O)N(c1cccc3ccccc13)C2=O [HBP1-3] | 7.8 ± 4.4% | – | > 30 µM | 12% | did not show obvious effect on eGFP expression | did not cause notable change | change in cell viability (LNCaP cells; LNCaP): significant decrease in cell viability
5 | O=C(CC1C(=O)NCCN1Cc1cccc2ccccc12)NCCn1ccc2ccccc21 (centres unmarked) [HBP1-17] | 7.8 ± 4.1% | – | > 30 µM | 10% | did not show obvious effect on eGFP expression | did not cause notable change | decrease in cell viability (LNCaP cells; LNCaP): ≥ 20%
6 | COc1ccc(CC2(CCC(=O)NCCn3ccc4ccccc43)CCC(=O)N2)c2ccccc12 (centres unmarked) [HBP1-38] | 18.6 ± 4.7% | – | > 30 µM | ~40% | promoted eGFP expression | did not cause notable change | inhibitory effect on LNCaP growth (LNCaP cells; LNCaP, 10 µM): inhibitory effect comparable to Bic; decrease in cell viability (LNCaP cells; LNCaP): ≥ 40%
7 | Cc1cc(O)nc2ccc(S(=O)(=O)Nc3ccc(O)cc3)cc12 [HBP1-51] | – | did not show apparent inhibition tendency | 3.96 µM | – | promoted eGFP expression | dose-dependent upregulation of GFP expression | IC50 (AR-LBD): 3.96 µM; maximum increase of cell viability (C4-2 cells; C4-2, all tested concentrations, versus untreated cells, not significant (P = 0.14)): below 20%; Antagonistic EC50 [1, 4]: Agonist
8 | Cc1ccccc1NCC(=O)N/N=C/c1ccc(-c2ccc(Cl)c(Cl)c2)o1 [HBP1-58] | 2.2 ± 0.8% | – | 4.92 µM | – | significantly reduced eGFP expression | – | IC50 (AR-LBD): 4.92 µM; change in cell viability (LNCaP cells; LNCaP): significant decrease in cell viability; EC50 [1, 4]: 3.25 ± 0.43 µM; IC50 ([1]; LNCaP-ARR2PB-eGFP, with DHT, read-out: IC50, antagonistic effect on AR transcriptional activity): 3.25 ± 0.43 µM
